These results are taken from US20030109525A1, “Crystalline thiazine oxazolidinones” (PHARMACIA & UPJOHN COMPANY, priority 2001, published 2003).

Data set [1] is described as follows: Bulk drug stability (storage at elevated temperature and humidity, HPLC assay). The data set is classed as physicochemical. As to the method: As referred to in the present application, “stable” in bulk drug stability tests means that at least about 90% by weight, preferably at least about 95% by weight, and more preferably at least about 99% by weight of the bulk drug remains unchanged after storage under the indicated conditions for the indicated time.
Aliquots (about 0.3 mg) of bulk anhydrous crystalline N-({(5S)-3-[4-(1,1-dioxido-4-thiomorpholinyl)-3,5-difluorophenyl]-2-oxo-1,3-oxazolidin-5-yl}methyl)acetamide were weighed into 2-mL vials. The uncapped vials were placed either in a 75% relative humidity chamber (desiccator containing water saturated with sodium chloride) or in a dry chamber (desiccator containing Drierite). The chambers were placed in temperature controlled cabinets at 56° C. and 70° C. A single vial was removed from each desiccator at selected time points and was assayed using high pressure liquid chromatography (HPLC).

The nature of data set [2]: Hygroscopicity by dynamic moisture sorption gravimetry (DMSG). The data set is classed as physicochemical. The following applies: 25° C. As to the method:
X-ray diffraction (XRD) patterns were measured on a Scintag X2 diffractometer (Thermo ARL, Ecublens, Switzerland) equipped with a theta-theta goniometer. Single crystal x-ray diffraction was carried out on a Bruker SMART 6K CCD Area Detector diffractometer (Bruker AXS, Karlsruhe, Germany). Mass spectrometry (MS) (ionization type) was carried out on a Micromass Platform II spectrometer (Micromass, Manchester, United Kingdom). High pressure liquid chromatography (HPLC) was carried out on an Agilent 1100 Series chromatograph (Agilent Technologies, Palo Alto, Calif.). Melting points were determined using a TA Instruments 2920 differential scanning calorimeter (TA Instruments, New Castle, Del.) module with a Thermal Analyst 5000 controller. Hygroscopicity was assessed by dynamic moisture sorption gravimetry (DMSG) using a Controlled Atmosphere Microbalance (Pharmacia Corp., Kalamazoo, Mich.). All chemicals used are available from Aldrich Chemical Co., Milwaukee, Wis., unless otherwise specified. N-({(5S)-3-[3,5-difluoro-4-(4-thiomorpholinyl)phenyl]-2-oxo-1,3-oxazolidin-5-yl}methyl)acetamide was prepared as described in PCT International Publication Number WO 01/98297 (Barbachyn et al.).
DMSG isotherms were collected on the variable temperature controlled atmospheric microbalance. Approximately 10 mg samples were used in the balance. […] The mass was then measured every two minutes. […]

`CC(=O)NC[C@H]1CN(c2cc(F)c(N3CCS(=O)(=O)CC3)c(F)c2)C(=O)O1` [Anhydrous Crystalline Form, N-({(5S)-3-[4-(1,1-dioxido-4-thiomorpholinyl)-3,5-difluorophenyl]-2-oxo-1,3-oxazolidin-5-yl}methyl)acetamide]: the “Bulk drug stability, % of initial HPLC peak area” value (from here on “Bulk drug stability, %”) in data set [1] (56° C., 75% relative humidity, Day 6) is reported as 100.1%; in data set [1] (56° C., 75% relative humidity, Day 13), 99.3%; in data set [1] (56° C., 75% relative humidity, Day 27) it was 99.9%; in data set [1] (56° C., 75% relative humidity, Day 61), 100.1%; in data set [1] (56° C., dessicator, Day 6) it was 100.1%; in data set [1] (56° C., dessicator, Day 13) it was 99.4%. For the same compound, the “Bulk drug stability, %” value in data set [1] (56° C., dessicator, Day 27) is recorded as 100.0%; in data set [1] (56° C., dessicator, Day 61) it was 99.8%; in data set [1] (70° C., 75% relative humidity, Day 6), 100.1%; in data set [1] (70° C., 75% relative humidity, Day 13) it was 99.6%; in data set [1] (70° C., 75% relative humidity, Day 27), 99.9%; in data set [1] (70° C., 75% relative humidity, Day 61) it was 99.9%. Also, the “Bulk drug stability, %” value in data set [1] (70° C., dessicator, Day 6) is given as 100.1%; in data set [1] (70° C., dessicator, Day 13), 99.7%; in data set [1] (70° C., dessicator, Day 27) it was 100.0%; in data set [1] (70° C., dessicator, Day 61), 100.0%. The “Bulk drug stability in aging tests (in words)” value in data set [1] (aging tests) is “excellent bulk drug stability”. For the same compound, in data set [2] (dynamic moisture sorption scan 0 to 87% relative humidity), the Hygroscopicity result is recorded as “not hygroscopic”. Also, in data set [2] (scan from 0 to 87% relative humidity, 3% humidity steps, equilibrium time not more than 180 minutes per step), the “Moisture picked up during dynamic moisture sorption scan” value is recorded as “approximately 0.2%”.
